Measurements as given in the OligoGym collection.
Only the 19 paired bases of each siRNA are shown; overhangs and chemistry are not given here.

Experiments:
PPIB = test: five studies, different assays; conditions: siRNA
firefly luciferase = test: five studies, different assays; conditions: siRNA
Note: test concentration or dose not given here.

sense AAAAACAGCAAAUUCCAUC / antisense GAUGGAAUUUGCUGUUUUU
target inhibition (PPIB): 7.6%

sense AAAACAGUGGAUAAUUUUG / antisense CAAAAUUAUCCACUGUUUU
target inhibition (PPIB): 49.5%

sense AAACAGCAAAUUCCAUCGU / antisense ACGAUGGAAUUUGCUGUUU
target inhibition (PPIB): 7.3%

sense AAAGAGCAUCUACGGUGAG / antisense CUCACCGUAGAUGCUCUUU
target inhibition (PPIB): 50.7%

sense AACAGUGGAUAAUUUUGUG / antisense CACAAAAUUAUCCACUGUU
target inhibition (PPIB): 16.3%

sense AACUUCAAACUGAAGCACU / antisense AGUGCUUCAGUUUGAAGUU
target inhibition (PPIB): 69.2%

sense AAGGAUUUGGCUACAAAAA / antisense UUUUUGUAGCCAAAUCCUU
target inhibition (PPIB): 81.9%

sense AAUUCCAUCGUGUAAUCAA / antisense UUGAUUACACGAUGGAAUU
target inhibition (PPIB): 87.4%

sense AAUUUUGUGGCCUUAGCUA / antisense UAGCUAAGGCCACAAAAUU
target inhibition (PPIB): 81.3%

sense ACAAAAACAGCAAAUUCCA / antisense UGGAAUUUGCUGUUUUUGU
target inhibition (PPIB): 78.5%

sense ACAGCAAAUUCCAUCGUGU / antisense ACACGAUGGAAUUUGCUGU
target inhibition (PPIB): 91.9%

sense ACAGGAGAGAAAGGAUUUG / antisense CAAAUCCUUUCUCUCCUGU
target inhibition (PPIB): 84.9%

sense ACAGGAGGAAAGAGCAUCU / antisense AGAUGCUCUUUCCUCCUGU
target inhibition (PPIB): 74.5%

sense ACUUCACCAGGGGAGAUGG / antisense CCAUCUCCCCUGGUGAAGU
target inhibition (PPIB): 41.9%

sense AGAACUUCAAACUGAAGCA / antisense UGCUUCAGUUUGAAGUUCU
target inhibition (PPIB): 45.4%

sense AGACUUCACCAGGGGAGAU / antisense AUCUCCCCUGGUGAAGUCU
target inhibition (PPIB): 87.6%

sense AGAGCAUCUACGGUGAGCG / antisense CGCUCACCGUAGAUGCUCU
target inhibition (PPIB): 71.7%

sense AGCAAAUUCCAUCGUGUAA / antisense UUACACGAUGGAAUUUGCU
target inhibition (PPIB): 86.4%

sense AGCAUCUACGGUGAGCGCU / antisense AGCGCUCACCGUAGAUGCU
target inhibition (PPIB): 64.1%

sense AGCUACAGGAGAGAAAGGA / antisense UCCUUUCUCUCCUGUAGCU
target inhibition (PPIB): 75.8%

sense AGGACUUCAUGAUCCAGGG / antisense CCCUGGAUCAUGAAGUCCU
target inhibition (PPIB): 82.9%

sense AGGAGAGAAAGGAUUUGGC / antisense GCCAAAUCCUUUCUCUCCU
target inhibition (PPIB): 88.4%

sense AGGAGGAAAGAGCAUCUAC / antisense GUAGAUGCUCUUUCCUCCU
target inhibition (PPIB): 58.9%

sense AGGGGAGAUGGCACAGGAG / antisense CUCCUGUGCCAUCUCCCCU
target inhibition (PPIB): 76.1%

sense AUAAUUUUGUGGCCUUAGC / antisense GCUAAGGCCACAAAAUUAU
target inhibition (PPIB): 32.8%

sense AUCAAGGACUUCAUGAUCC / antisense GGAUCAUGAAGUCCUUGAU
target inhibition (PPIB): 66.4%

sense AUCGUGUAAUCAAGGACUU / antisense AAGUCCUUGAUUACACGAU
target inhibition (PPIB): 86.7%

sense AUGAUCCAGGGCGGAGACU / antisense AGUCUCCGCCCUGGAUCAU
target inhibition (PPIB): 48.5%

sense AUUUGGCUACAAAAACAGC / antisense GCUGUUUUUGUAGCCAAAU
target inhibition (PPIB): 13.8%

sense CAAAAACAGUGGAUAAUUU / antisense AAAUUAUCCACUGUUUUUG
target inhibition (PPIB): 90.2%

sense CAAAUUCCAUCGUGUAAUC / antisense GAUUACACGAUGGAAUUUG
target inhibition (PPIB): 92.3%

sense CAAGGACUUCAUGAUCCAG / antisense CUGGAUCAUGAAGUCCUUG
target inhibition (PPIB): 74.4%

sense CACCAGGGGAGAUGGCACA / antisense UGUGCCAUCUCCCCUGGUG
target inhibition (PPIB): 73.8%

sense CAGGGCGGAGACUUCACCA / antisense UGGUGAAGUCUCCGCCCUG
target inhibition (PPIB): 46.8%

sense CAGUGGAUAAUUUUGUGGC / antisense GCCACAAAAUUAUCCACUG
target inhibition (PPIB): 39.7%

sense CAUCUACGGUGAGCGCUUC / antisense GAAGCGCUCACCGUAGAUG
target inhibition (PPIB): 89%

sense CCAGGGGAGAUGGCACAGG / antisense CCUGUGCCAUCUCCCCUGG
target inhibition (PPIB): 21.4%

sense CCAUCGUGUAAUCAAGGAC / antisense GUCCUUGAUUACACGAUGG
target inhibition (PPIB): 87.4%

sense CCCCGAUGAGAACUUCAAA / antisense UUUGAAGUUCUCAUCGGGG
target inhibition (PPIB): 84.7%

sense CCGAUGAGAACUUCAAACU / antisense AGUUUGAAGUUCUCAUCGG
target inhibition (PPIB): 85.1%

sense CCUUAGCUACAGGAGAGAA / antisense UUCUCUCCUGUAGCUAAGG
target inhibition (PPIB): 77.2%

sense GCGCGGAGGAGUUGUGUUU / antisense AAACACAACUCCUCCGCGC
target inhibition (firefly luciferase): 86.8%

sense GCGGAGGAGUUGUGUUUGU / antisense ACAAACACAACUCCUCCGC
target inhibition (firefly luciferase): 92.3%

sense GCUUCGAGCAGACAUGAUA / antisense UAUCAUGUCUGCUCGAAGC
target inhibition (firefly luciferase): 97.7%

sense GGAAAAAGAGAUCGUGGAU / antisense AUCCACGAUCUCUUUUUCC
target inhibition (firefly luciferase): 91.3%

sense GGAAAACUCGACGCAAGAA / antisense UUCUUGCGUCGAGUUUUCC
target inhibition (firefly luciferase): 92.7%

sense GGAAAGACGAUGACGGAAA / antisense UUUCCGUCAUCGUCUUUCC
target inhibition (firefly luciferase): 87.6%

sense GGAGGAGUUGUGUUUGUGG / antisense CCACAAACACAACUCCUCC
target inhibition (firefly luciferase): 93.2%

sense GGAUGGAUGGCUACAUUCU / antisense AGAAUGUAGCCAUCCAUCC
target inhibition (firefly luciferase): 97.4%

sense GGGCGCGGUCGGUAAAGUU / antisense AACUUUACCGACCGCGCCC
target inhibition (firefly luciferase): 93.6%

sense GGUAAAGUUGUUCCAUUUU / antisense AAAAUGGAACAACUUUACC
target inhibition (firefly luciferase): 94.5%

sense GGUGAACUUCCCGCCGCCG / antisense CGGCGGCGGGAAGUUCACC
target inhibition (firefly luciferase): 14.5%

sense GGUUUUGGAAUGUUUACUA / antisense UAGUAAACAUUCCAAAACC
target inhibition (firefly luciferase): 93.3%

sense GUAACAACCGCGAAAAAGU / antisense ACUUUUUCGCGGUUGUUAC
target inhibition (firefly luciferase): 85.5%

sense GUACCGAAAGGUCUUACCG / antisense CGGUAAGACCUUUCGGUAC
target inhibition (firefly luciferase): 80.4%

sense GUCGCCAGUCAAGUAACAA / antisense UUGUUACUUGACUGGCGAC
target inhibition (firefly luciferase): 44.9%

sense GUCGCUCUGCCUCAUAGAA / antisense UUCUAUGAGGCAGAGCGAC
target inhibition (firefly luciferase): 69.9%

sense GUCUUACCGGAAAACUCGA / antisense UCGAGUUUUCCGGUAAGAC
target inhibition (firefly luciferase): 61%

sense GUGUUGGGCGCGUUAUUUA / antisense UAAAUAACGCGCCCAACAC
target inhibition (firefly luciferase): 91.9%

sense GUUGGCAGAAGCUAUGAAA / antisense UUUCAUAGCUUCUGCCAAC
target inhibition (firefly luciferase): 93.1%

sense GUUGUGUUUGUGGACGAAG / antisense CUUCGUCCACAAACACAAC
target inhibition (firefly luciferase): 90.1%

sense GUUGUUGUUUUGGAGCACG / antisense CGUGCUCCAAAACAACAAC
target inhibition (firefly luciferase): 32.6%

sense GUUUUGGAGCACGGAAAGA / antisense UCUUUCCGUGCUCCAAAAC
target inhibition (firefly luciferase): -27.8%

sense UAAAGAAAGGCCCGGCGCC / antisense GGCGCCGGGCCUUUCUUUA
target inhibition (firefly luciferase): 5.9%

sense UACCGGAAAACUCGACGCA / antisense UGCGUCGAGUUUUCCGGUA
target inhibition (firefly luciferase): 95.9%

sense UACUACACUCGGAUAUUUG / antisense CAAAUAUCCGAGUGUAGUA
target inhibition (firefly luciferase): 38.6%

sense UAUGCCGGUGUUGGGCGCG / antisense CGCGCCCAACACCGGCAUA
target inhibition (firefly luciferase): 19.7%

sense UCAAGUAACAACCGCGAAA / antisense UUUCGCGGUUGUUACUUGA
target inhibition (firefly luciferase): 88.5%

sense UCAGAGAGAUCCUCAUAAA / antisense UUUAUGAGGAUCUCUCUGA
target inhibition (firefly luciferase): 92.1%

sense UCCCGCCGCCGUUGUUGUU / antisense AACAACAACGGCGGCGGGA
target inhibition (firefly luciferase): 43.8%

sense UCCGGAAGCGACCAACGCC / antisense GGCGUUGGUCGCUUCCGGA
target inhibition (firefly luciferase): 89.7%

sense UGAACUUCCCGCCGCCGUU / antisense AACGGCGGCGGGAAGUUCA
target inhibition (firefly luciferase): 63.3%

sense UGAAGUCUCUGAUUAAGUA / antisense UACUUAAUCAGAGACUUCA
target inhibition (firefly luciferase): 91.9%

sense UGACGGAAAAAGAGAUCGU / antisense ACGAUCUCUUUUUCCGUCA
target inhibition (firefly luciferase): 88.8%

sense UGGAAGAUGGAACCGCUGG / antisense CCAGCGGUUCCAUCUUCCA
target inhibition (firefly luciferase): 16.6%

sense UGGACGAAGUACCGAAAGG / antisense CCUUUCGGUACUUCGUCCA
target inhibition (firefly luciferase): 70.3%

sense UGGAGCACGGAAAGACGAU / antisense AUCGUCUUUCCGUGCUCCA
target inhibition (firefly luciferase): 52.2%

sense UGGAUUACGUCGCCAGUCA / antisense UGACUGGCGACGUAAUCCA
target inhibition (firefly luciferase): 93.6%

sense UGUAAACAAUCCGGAAGCG / antisense CGCUUCCGGAUUGUUUACA
target inhibition (firefly luciferase): 9.91%

sense UGUGGACGAAGUACCGAAA / antisense UUUCGGUACUUCGUCCACA
target inhibition (firefly luciferase): 77.8%

sense UGUGUUUGUGGACGAAGUA / antisense UACUUCGUCCACAAACACA
target inhibition (firefly luciferase): 90.8%

sense UGUUGUUUUGGAGCACGGA / antisense UCCGUGCUCCAAAACAACA
target inhibition (firefly luciferase): 82.5%

sense UGUUUGUGGACGAAGUACC / antisense GGUACUUCGUCCACAAACA
target inhibition (firefly luciferase): 35.9%

sense UUACGUCGCCAGUCAAGUA / antisense UACUUGACUGGCGACGUAA
target inhibition (firefly luciferase): 92.9%

sense UUCUGAUUACACCCGAGGG / antisense CCCUCGGGUGUAAUCAGAA
target inhibition (firefly luciferase): 10.7%

sense UUGCGCGGAGGAGUUGUGU / antisense ACACAACUCCUCCGCGCAA
target inhibition (firefly luciferase): 24.9%

sense UUGUUUUGGAGCACGGAAA / antisense UUUCCGUGCUCCAAAACAA
target inhibition (firefly luciferase): 89.2%

sense UUUGGAGCACGGAAAGACG / antisense CGUCUUUCCGUGCUCCAAA
target inhibition (firefly luciferase): -10.4%

sense UUUGUGGACGAAGUACCGA / antisense UCGGUACUUCGUCCACAAA
target inhibition (firefly luciferase): -18%
